# From patent publication US20120004244A1, “Bis Aromatic Compounds for Use as LTC4 Synthase Inhibitors” (BIOLIPOX AB, priority 2009, published 2012)
# Target: T1, Recombinant human LTC4 synthase (Homo sapiens, UniProt Q16873)
# T1 construct: made in house; host or cells: Pichia pastoris ('Piccia pastoralis' [sic])
# T1 sequence (Q16873 1-150): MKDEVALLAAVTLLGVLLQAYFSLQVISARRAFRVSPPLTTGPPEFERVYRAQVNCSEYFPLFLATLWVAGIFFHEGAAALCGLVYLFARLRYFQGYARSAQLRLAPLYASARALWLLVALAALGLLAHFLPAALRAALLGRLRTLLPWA
# Experiment: LTC4 synthase in vitro assay (LTA4 to LTC4, HTRF detection)
# Assay type: biochemical
# Method: In the assay, LTC4 synthase catalyses the reaction where the substrate LTA4 is converted to LTC4. Recombinant human LTC4 synthase is expressed in Piccia pastoralis and the purified enzyme is dissolved in 25 mM tris-buffer pH 7.8 supplemented with 0.1 mM glutathione (GSH) and stored at −80° C. The assay is performed in phosphate buffered saline (PBS) pH 7.4 and 5 mM GSH in 384-well plates.
# The following is added chronologically to each well:
# 1.48 μL LTC4 synthase in PBS with 5 mM GSH. The total protein concentration in this solution is 0.5 μg/mL. 2. 1 μL inhibitor in DMSO (final concentration 10 μM). 3. Incubation of the plate at room temperature for 10 min. 4. 1 μL LTA4 (final concentration 2.5 μM). 5. Incubation of the plate at room temperature for 5 min. 6. 10 μL of the incubation mixture is analysed using homogenous time resolved fluorescent (HTRF) detection.
row,SMILES,IC50 [nM]
1,"O=C(c1ccc(Oc2ccccc2F)c(C(=O)O)c1)c1ccc(N(CC(F)(F)F)c2ccc(Cl)cc2F)cn1 [1:35, 5-{5-[(4-Chloro-2-fluorophenyl)-(2,2,2-trifluoroethyl)amino]picolinoyl}-2-(2-fluorophenoxy)benzoic acid]",621
2,"O=C(c1ccc(Oc2ccccc2CCCO)c(C(=O)O)c1)c1ccc(N(CC2CC2)c2ccc(Cl)cc2)cn1 [1:36, 5-{5-[(4-Chlorophenyl)(cyclopropylmethyl)amino]picolinoyl}-2-[2-(3-hydroxypropyl)phenoxy]benzoic acid]",116
3,"CS(=O)(=O)c1ccc(Oc2ccc(C(=O)c3ccc(N(CC4CC4)c4ccc(Cl)cc4)cn3)cc2C(=O)O)cc1 [1:37, 5-{5-[(4-Chlorophenyl)(cyclopropylmethyl)amino]picolinoyl}-2-(4-methylsulfonylphenoxy)benzoic acid]",300
4,"O=C(c1ccc(Oc2ccccc2F)c(C(=O)O)c1)c1ccc(N(CC2CC2)c2ccc(Cl)cc2)cn1 [1:38, 5-{5-[(4-Chlorophenyl)(cyclopropylmethyl)amino]picolinoyl}-2-(2-fluorophenoxy)benzoic acid]",79
5,"O=C(c1ccc(Oc2ccccc2Oc2ccc(F)cc2F)c(C(=O)O)c1)c1ccc(N(CC2CC2)c2ccc(Cl)cc2)cn1 [1:42, 5-{5-[(4-Chlorophenyl)(cyclopropylmethyl)amino]picolinoyl}-2-[2-(2,4-difluorophenoxy)phenoxy]benzoic acid]",52
6,"O=C(c1ccc(Oc2ccccc2Oc2cccnc2)c(C(=O)O)c1)c1ccc(N(CC2CC2)c2ccc(Cl)cc2)cn1 [1:43, 5-{5-[(4-Chlorophenyl)(cyclopropylmethyl)amino]picolinoyl}-2-[2-(3-pyridyloxy)phenoxy]benzoic acid]",61
7,"O=C(c1ccc(Oc2ccccc2Oc2ccccc2Cl)c(C(=O)O)c1)c1ccc(N(CC2CC2)c2ccc(Cl)cc2)cn1 [1:45, 2-[2-(2-Chlorophenoxy)phenoxy]-5-{5-[(4-chlorophenyl)(cyclopropylmethyl)amino]picolinoyl}benzoic acid]",32

# The next lines start with the values.
row,IC50 [nM],SMILES
1,20,"N#Cc1ccccc1Oc1ccccc1Oc1ccc(C(=O)c2ccc(N(CC3CC3)c3ccc(Cl)cc3)cn2)cc1C(=O)O [1:32, 5-{5-[(4-Chlorophenyl)(cyclopropylmethyl)amino]picolinoyl}-2-[2-(2-cyanophenoxy)phenoxy]benzoic acid]"
2,351,"C#CCN(c1ccc(C(=O)c2ccc(Oc3ccccc3F)c(C(=O)O)c2)nc1)c1ccc(Cl)cc1F [1:33, 5-{5-[(4-Chloro-2-fluorophenyl)(2-propynyl)amino]picolinoyl}-2-(2-fluorophenoxy)benzoic acid]"
3,195,"O=C(c1ccc(Oc2ccccc2F)c(C(=O)O)c1)c1ccc(N(CC2CC2)c2ccc(Cl)cc2F)cn1 [1:34, 5-{5-[(4-Chloro-2-fluorophenyl)(cyclopropylmethyl)amino]picolinoyl}-2-(2-fluorophenoxy)benzoic acid]"
4,70,"COc1cc(OC)cc(Oc2ccc(C(=O)c3ccc(N(CC4CC4)c4ccc(Cl)cc4)cn3)cc2C(=O)O)c1 [1:39, 5-{5-[(4-Chlorophenyl)(cyclopropylmethyl)amino]picolinoyl}-2-(3,5-dimethoxyphenoxy)benzoic acid]"
5,66,"O=C(c1ccc(Oc2ccccc2Oc2ccccc2)c(C(=O)O)c1)c1ccc(N(CC2CC2)c2ccc(Cl)cc2)cn1 [1:40, 5-{5-[(4-Chlorophenyl)(cyclopropylmethyl)amino]picolinoyl}-2-(2-phenoxyphenoxy)benzoic acid]"
6,1320,"CC1(CN(c2ccc(C(=O)c3ccc(Oc4ccccc4F)c(C(=O)O)c3)nc2)c2ccc(Cl)cc2F)COC1 [1:41, 5-{5-[(4-Chloro-2-fluorophenyl)-(3-methyloxetan-3-ylmethyl)amino]picolinoyl}-2-(2-fluorophenoxy)benzoic acid]"
7,57,"O=C(c1ccc(Oc2ccccc2Oc2ccccn2)c(C(=O)O)c1)c1ccc(N(CC2CC2)c2ccc(Cl)cc2)cn1 [1:44, 5-{5-[(4-Chlorophenyl)(cyclopropylmethyl)amino]picolinoyl}-2-[2-(2-pyridyloxy)phenoxy]benzoic acid]"
